Laboratory results as given in US9492462B2, “Composition for elastin production” (HUMAN MATRIX SCIENCES, LLC, priority 2007, dated 2016).

Legend:
Format in all cases: cell-based, human
normal skin fibroblasts [1] = experiment: [3H]-valine incorporation into insoluble elastin, normal skin fibroblasts; settings: for mature, insoluble elastin concentration ([3H]-valine incorporation): 50 ng/ml IGF-I, 50 nM aldosterone, alone or in combination
Description: (§1) Biological effects of aldosterone and spironolactone were tested in cultures of dermal fibroblasts derived from normal skin, stretch-marked skin and dermal scars derived from Caucasian females, of different ages ranging from 30-38 years old. All fibroblasts were originally isolated by allowing them to migrate out of skin explants and then passaged by trypsinization and maintained in alpha-minimum essential medium supplemented with 20 mM Hepes, 1% antibiotics and antimycotics, 1% L-Glutamate and 2% fetal bovine serum (FBS) as previously described Hinek et al. “Impaired elastic-fiber assembly by fibroblasts from patients with either Morquio B disease or infantile GM1-gangliosidosis is linked to deficiency in the 67-kD spliced variant of beta-galactosidase.” Am J Hum Genet. 2000 July; 67(1):23-36 hereby incorporated by reference in its entirety. In all experiments, consecutive passages 3-4 were tested. Cells were densely plated (50×10^5 cells/dish) to reach confluency and then cultured for 7 days in the presence and absence of different concentrations of (10 nM-1 μM) aldosterone, 2 μM spironolactone, alone or in combinations with other reagents, as described in figure legends.
Quintuplicate, 4 day-old cultures of dermal fibroblasts maintained in the presence and absence of indicated reagents were additionally exposed for the 3 following days to 20 μCi [^3H]-valine. At the end of incubation period, the cell layers were extensively washed with PBS, scraped and boiled in 500 μl of 0.1 N NaOH for 30 minutes, to solubilize all matrix components except elastin. The resulting pellets containing the insoluble elastin were then solubilized by boiling in 200 μl of 5.7 N HCl for 1 hour, and the aliquots were mixed in scintillation fluid and counted. Aliquots taken from each culture were also used for DNA determination, according to Rodems et al., using the DNeasy Tissue System from Qiagen. Final results reflecting amounts of metabolically labeled insoluble elastin in individual cultures were normalized per their DNA content, and expressed as CPM/1 μg DNA.

[2] = test system: fibroblasts derived from dermal scar tissue; experiment: Elastin immunostaining in 7-day cultures of dermal scar fibroblasts
Description: as §1
7-day-old cultures of fibroblasts, which produce abundant ECM, were assessed. All cultures were fixed in cold 100% methanol at −20° C. for 30 min, and then incubated for 1 hour with 2 μg/ml of polyclonal antibody to tropoelastin. Cultures were then incubated for an additional hour with appropriate fluorescein-conjugated secondary antibody (GAR-FITC). Nuclei were counterstained with propidium iodide. Morphometric analysis of five separate cultures in each experimental group, immunostained with antibodies recognizing extracellular matrix components, was performed using a computerized video analysis system (Image-Pro Plus software 3.0, Media Cybernetics, Silver Spring, Md.) as described previously in Hinek et al. “Decreased elastin deposition and high proliferation of fibroblasts from Costello syndrome are related to functional deficiency in the 67-kD elastin-binding protein.” Am J Hum Genet. […]

[3] = test system: fibroblasts derived from dermal scar tissue; experiment: [3H]-valine incorporation into insoluble elastin, dermal scar fibroblasts
Description: Biological effects of aldosterone and spironolactone were tested in cultures of dermal fibroblasts derived from normal skin, stretch-marked skin and dermal scars derived from Caucasian females, of different ages ranging from 30-38 years old. All fibroblasts were originally isolated by allowing them to migrate out of skin explants and then passaged by trypsinization and maintained in alpha-minimum essential medium supplemented with 20 mM Hepes, 1% antibiotics and antimycotics, 1% L-Glutamate and 2% fetal bovine serum (FBS) as previously described Hinek et al. “Impaired elastic-fiber assembly by fibroblasts from patients with either Morquio B disease or infantile GM1-gangliosidosis is linked to deficiency in the 67-kD spliced variant of beta-galactosidase.” Am J Hum Genet. 2000 July; 67(1):23-36 hereby incorporated by reference in its entirety. […]
Quintuplicate, 4 day-old cultures of dermal fibroblasts maintained in the presence and absence of indicated reagents were additionally exposed for the 3 following days to 20 μCi [^3H]-valine. […] The resulting pellets containing the insoluble elastin were then solubilized by boiling in 200 μl of 5.7 N HCl for 1 hour, and the aliquots were mixed in scintillation fluid and counted. […] Final results reflecting amounts of metabolically labeled insoluble elastin in individual cultures were normalized per their DNA content, and expressed as CPM/1 μg DNA.

normal skin fibroblasts [4] = experiment: Elastin immunostaining in 7-day cultures of normal skin fibroblasts; settings: for deposition of elastin (anti-elastin immunostaining): 50 ng/ml IGF-I, 50 nM aldosterone, alone or together, vs untreated control
Description: as §1
7-day-old cultures of fibroblasts, which produce abundant ECM, were assessed. All cultures were fixed in cold 100% methanol at −20° C. for 30 min, and then incubated for 1 hour with 2 μg/ml of polyclonal antibody to tropoelastin. Cultures were then incubated for an additional hour with appropriate fluorescein-conjugated secondary antibody (GAR-FITC). Nuclei were counterstained with propidium iodide. Morphometric analysis of five separate cultures in each experimental group, immunostained with antibodies recognizing extracellular matrix components, was performed using a computerized video analysis system (Image-Pro Plus software 3.0, Media Cybernetics, Silver Spring, Md.) as described previously in Hinek et al. “Decreased elastin deposition and high proliferation of fibroblasts from Costello syndrome are related to functional deficiency in the 67-kD elastin-binding protein.” Am J Hum Genet. 2000 March; 66(3):859-72 and Hinek and Wilson, “Impaired elastogenesis in Hurler disease: dermatan sulfate accumulation linked to deficiency in elastin-binding protein and elastic fiber assembly.” Am J Pathol. 2000 March; 156(3):925-38 both of which are hereby incorporated by reference in their entireties.

[5] = test system: skin biopsy explants derived from abdominal dermal scar; experiment: Organ culture of dermal scar explants, Movat's pentachrome stain
Description: In order to further test whether aldosterone and spironolactone would penetrate into skin tissue and affect elastogenesis, fragments of normal skin, stretch-marked skin and dermal scars were tested in organ culture system. Skin fragments were cut into multiple 1 mm^2 pieces and placed on top of metal grids immersed in culture medium containing 5% FBS and maintained for 10 days in the presence and absence of and then cultured for 7 days in the presence of 50 nM aldosterone, and 2 μM spironolactone, alone or in combinations, as described in figure legends. The media were changed every second day.
All organ cultures were fixed in 1% buffered formalin and their transversal serial histological sections were stained with Movat's pentachrome as previously described in Hinek et al. “Proteolytic digest derived from bovine Ligamentum Nuchae stimulates deposition of new elastin-enriched matrix in cultures and transplants of human dermal fibroblasts” J Dermatol Sci. September 2005; 39(3):155-66 hereby incorporated by reference in it's entirety. Morphometric analysis was performed as described above. In each analyzed group (three explants from each patient) low-power fields (1 mm^2) of 20 serial sections stained with Movat's pentachrome were analyzed and all structures stained black (elastic fibers) were counted.

[6] = test system: fibroblasts derived from patient with stretch marks; experiment: Elastin immunostaining in 7-day cultures of fibroblasts from a patient with stretch marks; settings: 50 nM aldosterone alone or with 2 μM spironolactone; vs untreated control or spironolactone only
Description: Biological effects of aldosterone and spironolactone were tested in cultures of dermal fibroblasts derived from normal skin, stretch-marked skin and dermal scars derived from Caucasian females, of different ages ranging from 30-38 years old. All fibroblasts were originally isolated by allowing them to migrate out of skin explants and then passaged by trypsinization and maintained in alpha-minimum essential medium supplemented with 20 mM Hepes, 1% antibiotics and antimycotics, 1% L-Glutamate and 2% fetal bovine serum (FBS) as previously described Hinek et al. “Impaired elastic-fiber assembly by fibroblasts from patients with either Morquio B disease or infantile GM1-gangliosidosis is linked to deficiency in the 67-kD spliced variant of beta-galactosidase.” Am J Hum Genet. 2000 July; 67(1):23-36 hereby incorporated by reference in its entirety. In all experiments, consecutive passages 3-4 were tested. Cells were densely plated (50×10^5 cells/dish) to reach confluency and then cultured for 7 days in the presence and absence of different concentrations of (10 nM-1 μM) aldosterone, 2 μM spironolactone, alone or in combinations with other reagents, as described in figure legends. 7-day-old cultures of fibroblasts, which produce abundant ECM, were assessed. […]

collagen type I mRNA = experiment: Collagen type I mRNA level by one-step RT-PCR in normal skin fibroblasts; settings: 24 h; 50 nM and 1 μM aldosterone, alone or with 2 μM spironolactone
Description: (§2) Fibroblasts were cultured to confluency in medium with 2% FBS and then in serum-free medium for 24 hours. The medium was changed again and cells were incubated for the next 24 hours in the presence and absence of in the presence of 50 nM and 1 μM aldosterone, and 2 μM spironolactone, alone or in combinations, as described in figure legend. At the end of the incubation period total RNA was extracted using the RNeasy Mini Kit, according to manufacturer's instructions. Steady-state levels of elastin mRNA were then analyzed by One-Step RT-PCR analysis. Briefly, 1 μg of total RNA was added to each one step RT-PCR (Qiagen One-Step RT-PCR Kit), and reactions were set up according to manufacturer's instructions in a total volume of 25 μl. The reverse transcription step was performed for elastin, and GAPDH reactions at 50° C. for 30 minutes, followed by 15 minutes at 95° C. The elastin PCR reaction (sense primer: [NT] ID NO: 1), antisense primer: [NT] ID NO: 2); designed to produce a 255 bp product) was performed under the following conditions: 25 cycles at 94° C. denaturation for 20 s, 63° C. annealing for 20 s, 72° C. extension for 1 min; 1 cycle at 72° C. final extension for 10 min. The collagen Type I PCR reaction (sense [NT] ID NO: 3), antisense primer: [NT] […]

[7] = test system: skin biopsy explants from abdominal stretch marks; experiment: Organ culture of stretch-marked skin explants, Movat's pentachrome stain; settings: 10 days, 50 nM aldosterone alone or with 2 μM spironolactone
Description: (§3) In order to further test whether aldosterone and spironolactone would penetrate into skin tissue and affect elastogenesis, fragments of normal skin, stretch-marked skin and dermal scars were tested in organ culture system. Skin fragments were cut into multiple 1 mm^2 pieces and placed on top of metal grids immersed in culture medium containing 5% FBS and maintained for 10 days in the presence and absence of and then cultured for 7 days in the presence of 50 nM aldosterone, and 2 μM spironolactone, alone or in combinations, as described in figure legends. The media were changed every second day. All organ cultures were fixed in 1% buffered formalin and their transversal serial histological sections were stained with Movat's pentachrome as previously described in Hinek et al. “Proteolytic digest derived from bovine Ligamentum Nuchae stimulates deposition of new elastin-enriched matrix in cultures and transplants of human dermal fibroblasts” J Dermatol Sci. September 2005; 39(3):155-66 hereby incorporated by reference in it's entirety. Morphometric analysis was performed as described above. In each analyzed group (three explants from each patient) low-power fields (1 mm^2) of 20 serial sections stained with Movat's pentachrome were analyzed and all structures stained black (elastic fibers) were counted.

[8] = test system: fibroblasts derived from patient with stretch marks; experiment: [3H]-valine incorporation into insoluble elastin, stretch-mark fibroblasts; settings: 50 nM aldosterone alone or with 2 μM spironolactone
Description: Biological effects of aldosterone and spironolactone were tested in cultures of dermal fibroblasts derived from normal skin, stretch-marked skin and dermal scars derived from Caucasian females, of different ages ranging from 30-38 years old. All fibroblasts were originally isolated by allowing them to migrate out of skin explants and then passaged by trypsinization and maintained in alpha-minimum essential medium supplemented with 20 mM Hepes, 1% antibiotics and antimycotics, 1% L-Glutamate and 2% fetal bovine serum (FBS) as previously described Hinek et al. “Impaired elastic-fiber assembly by fibroblasts from patients with either Morquio B disease or infantile GM1-gangliosidosis is linked to deficiency in the 67-kD spliced variant of beta-galactosidase.” Am J Hum Genet. […] In all experiments, consecutive passages 3-4 were tested. […] The resulting pellets containing the insoluble elastin were then solubilized by boiling in 200 μl of 5.7 N HCl for 1 hour, and the aliquots were mixed in scintillation fluid and counted. […] Final results reflecting amounts of metabolically labeled insoluble elastin in individual cultures were normalized per their DNA content, and expressed as CPM/1 μg DNA.

[9] = test system: skin biopsy explants derived from normal abdominal skin; experiment: Organ culture of normal skin explants, Movat's pentachrome stain; settings: 10 days, 50 nM aldosterone alone or with 2 μM spironolactone
Description: as §3

elastin mRNA = experiment: Elastin mRNA level by one-step RT-PCR in normal skin fibroblasts; settings: 24 h; 50 nM and 1 μM aldosterone, alone or with 2 μM spironolactone
Description: as §2

[10] = FIG. 11, 50 nM aldosterone alone or with 2 μM spironolactone, vs untreated control

IGF-I: ligand of insulin growth factor receptor I, added at 10-100 ng/ml
mature, insoluble elastin concentration ([3H]-valine incorporation) (normal skin fibroblasts [1]): improved mature elastin concentrations over untreated control
elastin deposition (anti-elastin immunostaining) ([2]; 10 ng/ml IGF-I vs untreated control): increase in elastin depositions
elastin deposition (anti-elastin immunostaining) ([2]; 100 ng/ml IGF-I vs untreated control): even greater elastin deposition
deposition of mature, insoluble elastin ([3H]-valine incorporation) ([3]; 10 and 100 ng/ml IGF-I vs untreated control): dose dependent increase
deposition of elastin (anti-elastin immunostaining) (normal skin fibroblasts [4]; 7-day cultures): enhances the deposition of elastin

CC(C)(C)c1cc(C=C(C#N)C#N)cc(Br)c1O [AG1024]
elastin deposition in AG1024-treated explants (Movat's pentachrome) ([5]; 5 μM AG1024 alone, with 50 nM aldosterone, or with aldosterone and 2 μM spironolactone): no net increase in elastin deposition
mature elastin concentration in the presence of IGF-I or aldosterone ([3H]-valine incorporation) (normal skin fibroblasts [1]; 1 μg/ml αIGF-IR or 5 μM AG1024 with 50 ng/ml IGF-I or 50 nM aldosterone): maintained at or below control levels
effect on aldosterone-enhanced deposition of elastin (immunostaining) (normal skin fibroblasts [4]; 50 nM aldosterone with 1 μg/ml αIGF-IR or 5 μM AG1024): inhibited
effect on IGF-I-enhanced deposition of elastin (immunostaining) (normal skin fibroblasts [4]; 50 ng/ml IGF-I with 1 μg/ml αIGF-IR or 5 μM AG1024): inhibited

CC(=O)S[C@@H]1CC2=CC(=O)CC[C@]2(C)[C@H]2CC[C@@]3(C)[C@@H](CC[C@@]34CCC(=O)O4)[C@H]12 [spironolactone]
elastin deposition in cells treated with increasing concentrations of aldosterone (normal skin fibroblasts [4]; 2 μM spironolactone added to 10 nM, 50 nM, 1 μM aldosterone, 7-day cultures): did not alter elastin deposition

C[C@]12CCC(=O)C=C1CC[C@@H]1[C@@H]2[C@@H](O)C[C@]2(C=O)[C@@H](C(=O)CO)CC[C@@H]12 [aldosterone]
deposition of collagen (yellow, Movat's pentachrome) [5, 10]: increases in deposition
deposition of elastin (black, Movat's pentachrome) [5, 10]: increases in deposition
elastic fibers (Movat's pentachrome) ([5]; superficial and deep portion of scar, 10 days, 50 nM aldosterone alone or with 2 μM spironolactone): numerous elastic fibers
elastin stained by anti-elastin antibodies [6]: increase in elastin
mature, insoluble elastin concentration ([3H]-valine incorporation) (normal skin fibroblasts [1]): improved mature elastin concentrations over untreated control
collagen type I mRNA (relative to GAPDH mRNA) (collagen type I mRNA): net increase of collagen type I mRNA
elastic fibers / deposition of elastin (Movat's pentachrome) [7]: thicker and longer elastic fibers
elastin stained by anti-elastin antibodies ([2]; 50 nM aldosterone alone or with 2 μM spironolactone, vs untreated control or spironolactone only): increase in elastin
deposition of insoluble mature elastin ([3H]-valine incorporation) ([3]; 50 nM aldosterone alone or with 2 μM spironolactone): enhanced
concentration of mature, insoluble elastin ([3H]-valine incorporation) [8]: increased
elastic fibers / deposition of elastin (Movat's pentachrome) [9]: thicker and longer elastic fibers
concentration of elastin (anti-elastin immunostaining) (normal skin fibroblasts [4]; 7-day cultures, 10 nM, 50 nM, 1 μM aldosterone vs untreated): increased in an aldosterone concentration specific manner
deposition of elastin (anti-elastin immunostaining) (normal skin fibroblasts [4]; 7-day cultures): enhanced deposition of elastin
elastin mRNA (relative to GAPDH mRNA) (elastin mRNA): increases in an aldosterone concentration dependent manner
